Test results published in patent US12479858B2, “Macrocyclic compounds as sting agonists and methods and uses thereof” (Lupin Limited, priority 2019, dated 2025).
Where a name gives a salt, the structure may show the parent alone. Read-outs that look alike come from different tables or passages of the source.

What was measured:
[1] = Plasma and tumor compound concentrations in CT26 tumor-bearing mice (LC-MS/MS); type: in vivo, BALB/c mice; conditions: for concentration at 3.5 h / concentration at 8 h / concentration at 12 h / concentration at 24 h: BALB/c, mouse, intravenous
Experimental: Pharmacokinetic and Pharmacodynamic Profiling and Estimation of Immune Cell Infiltration in Tumors Following Treatment with Compounds 2, 6, 8, 12 and 14
Serum and tumor cytokine levels and corresponding compound concentrations in mouse plasma were determined following single-dose intravenous administration in CT26 (murine colorectal carcinoma) tumor-bearing mice. Briefly, naïve BALB/c mice in the age group of 6-8 weeks were inoculated with 0.1 million CT-26 cells/animal in phosphate buffered saline (PBS), subcutaneously. […] Blood and tumor samples were harvested at various time points up to 24 h post-dose. Tumor samples were homogenized and prepared for cytokine estimation (ELISA) and compound concentration were determined by LC-MS/MS. Serum aliquots and tumor samples were snap-frozen and stored at −80° C. till further analysis. Serum and tumor samples were evaluated for Interferon beta (IFNβ), interleukin-6 (IL-6) and tumor necrosis factor alpha (TNFα) by enzyme linked immunosorbent assay (ELISA) using kits from R & D systems (Quantikine mouse IL-6 and TNFα kits) and PBL biosciences (Verikine mouse IFNβ kit).
Bioanalysis of plasma and tumor samples: Plasma and tumor concentrations of test compounds were determined by LC-MS/MS method. Tumor samples were homogenized utilizing a bead-based homogenizer. Plasma samples and tumor homogenates were extracted using protein precipitation method with organic solution containing respective internal standards. Plasma and tumor concentrations were determined against respective calibration curve. Table 3 indicates the concentration of Compound 2 in plasma and tumor at different administered doses. Table 4 indicates the concentration of Compounds 6, 8, 12, and 14 in plasma and tumor at different administered doses. Table 5 indicates cytokine levels for Compound 2 in serum and tumor at different doses. Table 6 indicates cytokine levels for Compounds 6, 8, 12 and 14 in serum and tumor at 0.375 mpk.

[2] = Apparent solubility/extended kinetic solubility by UHPLC; type: physicochemical; conditions: aqueous buffer, thermodynamic from solid, phosphate buffer, 37° C.
Experimental: Biological Assay—Determination of Apparent Solubility/Extended Kinetic Solubility by UHPLC
Test sample preparation: About 0.5 mg of the test sample was weighed and transferred in duplicate in 1 mL glass inserts of 96 well plates. 5 μL of DMSO and 1 ml of phosphate buffer were added. Allowed for equilibrium in an orbital shaker at 37° C. for 24 hrs. Later, allowed it cool to room temperature and centrifuged the 96 well plate (at 240×10 RPM for 20 min) and supernatant material was taken into collection plate, covered it with the heat resistant aluminum sheet or supernatant material was directly taken into HPLC sample vial.
Injected diluent as blank and linearity solutions in duplicate. Recorded the chromatograms and plotted the calibration curve, concentration (X-axis) versus Area (y-axis). The correlation coefficient for calibration curve should be not less than 0.95. If above criteria passes, then injected the test samples and recorded the chromatograms. In case saturated peaks are observed, then diluted the test sample with diluent as appropriate.
Calculated the slope and intercept of the calibration curve. From the standard curve, determined the solubility of the sample in μM (micromolar).

CT26 Allograft = test: Tumor volume in CT26 allograft BALB/c mice model, intravenous administration; type: in vivo; conditions: for effect on tumor volume / subjects exhibiting complete tumor regression: i.v., indicated dose at days 1, 4, and 8
Experimental: Effect of Compounds on Tumor Volume in CT26 Allograft BALB/c Mice Model by Intravenous (i.v.) Administration
Healthy, female BALB/c mice in the age group of 5-8 weeks issued from Research Animal Facility (RAF). These mice were housed in individually ventilated cages (IVC) in the experimental animal room and were acclimatized not less than 5 days prior to cell inoculation. All the experimental activities were carried out inside the biosafety cabinet to ensure sterility. Under aseptic conditions, Allograft tumor model was generated by inoculating BALB/c mice with 0.1 million CT26 single cell suspension (colorectal cancer model), using 1 mL disposable syringe fitted with a 26G ½″ sterile needle. Each mouse was inoculated with 100 μL of CT26 cell suspension in phosphate buffered saline (PBS) media, subcutaneously in right flank region. Mice were randomized into different groups, post cell inoculation, with approximately equal mean and equal variation (S.E.M.) of tumor volumes in various treatment groups including vehicle control group.
Tumor size was measured with Vernier caliper when the tumor became palpable. Tumor volume (T. V.) was calculated by using the formula: Tumor volume (mm^3)=(L×W^2)/2 • Where, L—Length of tumor, W—Width of tumor
Mice were selected and randomized, on the basis of tumor volume, into required no. of groups with approximately equal mean and equal variation on day 1 of treatment, post-tumor cell inoculation. All study groups were treated via intravenous route on day 1, 4 and 8 dosing schedule, through lateral tail vein at a dose volume of 5 mL/kg.
Tumor sizes were measured with Vernier caliper twice weekly and body weights of mice were recorded daily.
Percent tumor growth inhibition (% TGI) was calculated using the formula: % TGI=[1−(Tf−Ti)/(Cf−Ci)]×100 Wherein Tf and Ti are the final and initial test tumor volumes, respectively, and Cf and Ci are the final and initial control mean tumor volumes, respectively.
Percent Tumor Regression (% TR) was calculated using the formula: % TR=[(Initial T.V.−Final T.V.)/(Initial T.V.)]×100 Wherein T.V.=Tumor Volume
Body weight change (%) was calculated by using the formula: Body weight change (%)[=(Final B.Wt.)−(Initial B.Wt.)/Initial B.Wt.]×100 Wherein B.Wt.=Body weight

[3] = 0.375 mg/kg single i.v., 24 h (Table 4)
[4] = plasma, 0.375 mg/kg single i.v., 3.5 h (Table 4), read-out: Plasma Conc.
[5] = plasma, 0.375 mg/kg single i.v., 8 h (Table 4), read-out: Plasma Conc.
[6] = plasma, 0.375 mg/kg single i.v., 12 h (Table 4), read-out: Plasma Conc.
[7] = tumor, 0.375 mg/kg single i.v., 3.5 h (Table 4), read-out: Tumor Conc.
[8] = tumor, 0.375 mg/kg single i.v., 8 h (Table 4), read-out: Tumor Conc.
[9] = tumor, 0.375 mg/kg single i.v., 12 h (Table 4), read-out: Tumor Conc.
[10] = tumor, 0.375 mg/kg single i.v., 24 h (Table 4), read-out: Tumor Conc.

Row | Structure (SMILES) | solubility at 24 h [2] | effect on tumor volume (CT26 Allograft) | subjects exhibiting complete tumor regression (CT26 Allograft) | Plasma Conc. [1, 3] | concentration at 3.5 h [1, 4] | concentration at 8 h [1, 5] | concentration at 12 h [1, 6] | concentration at 3.5 h [1, 7] | concentration at 8 h [1, 8] | concentration at 12 h [1, 9] | concentration at 24 h [1, 10] | other results
1 | CCn1nc(C)cc1C(=O)Nc1nc2cc(C(N)=O)cc3c2n1C/C=C/Cn1c(NC(=O)c2cc(C)nn2CC)nc2cc(C(=O)N[C@H]4CC[C@H](C(=O)O)CC4)cc(c21)OCCCO3 [Compound 2, (1R,4R)-4-((E)-12-carbamoyl-1,15-bis(1-ethyl-3-methyl-1H-pyrazole-5-carboxamido)-8,9,16,19-tetrahydro-7H-6,10-dioxa-2,14,15a,19a-tetraazacyclopentadeca[3,2,1-cd:8,9,10-c′d′]diindene-4-carboxamido)cyclohexane-1-carboxylic acid sodium salt] | 3.57 mM | reduces tumor volume | 7 out of 9 |  |  |  |  |  |  |  |  | concentration at 3.5 h ([1]; plasma, 0.093 mg/kg single i.v., 3.5 h, read-out: Plasma Conc.): 110 ± 10 nM; concentration at 8 h ([1]; plasma, 0.093 mg/kg single i.v., 8 h, read-out: Plasma Conc.): 30 nM; concentration at 3.5 h ([1]; plasma, 0.187 mg/kg single i.v., 3.5 h, read-out: Plasma Conc.): 220 ± 20 nM; concentration at 8 h ([1]; plasma, 0.187 mg/kg single i.v., 8 h, read-out: Plasma Conc.): 40 ± 10 nM; concentration at 3.5 h ([1]; plasma, 0.375 mg/kg single i.v., 3.5 h (Table 3), read-out: Plasma Conc.): 470 ± 60 nM; concentration at 8 h ([1]; plasma, 0.375 mg/kg single i.v., 8 h (Table 3), read-out: Plasma Conc.): 80 ± 10 nM; concentration at 12 h ([1]; plasma, 0.375 mg/kg single i.v., 12 h (Table 3), read-out: Plasma Conc.): 50 ± 10 nM; concentration at 3.5 h ([1]; tumor, 0.093 mg/kg single i.v., 3.5 h, read-out: Tumor Conc.): 70 ± 20 nM; concentration at 8 h ([1]; tumor, 0.093 mg/kg single i.v., 8 h, read-out: Tumor Conc.): 60 ± 30 nM; concentration at 3.5 h ([1]; tumor, 0.187 mg/kg single i.v., 3.5 h, read-out: Tumor Conc.): 90 ± 20 nM; concentration at 8 h ([1]; tumor, 0.187 mg/kg single i.v., 8 h, read-out: Tumor Conc.): 120 ± 80 nM; concentration at 3.5 h ([1]; tumor, 0.375 mg/kg single i.v., 3.5 h (Table 3), read-out: Tumor Conc.): 230 ± 120 nM; concentration at 8 h ([1]; tumor, 0.375 mg/kg single i.v., 8 h (Table 3), read-out: Tumor Conc.): 140 ± 50 nM; concentration at 12 h ([1]; tumor, 0.375 mg/kg single i.v., 12 h (Table 3), read-out: Tumor Conc.): 110 ± 60 nM; compound levels in tumor ([1]; CT26 tumor-bearing mice, single i.v. dose): sustained levels in tumor; effect on body weight (CT26 Allograft; 3 mpk (mg/kg)): < 10%; effect on tumor volume at high dose (CT26 Allograft; two different doses, days 1, 4, and 8, n=10 (FIG. 6)): reduces tumor volume
2 | CCn1nc(C)cc1C(=O)Nc1nc2cc(C(N)=O)cc3c2n1C/C=C/Cn1c(NC(=O)c2cc(C)nn2CC)nc2cc(C(=O)N[C@H]4CC[C@H](c5nnn[nH]5)CC4)cc(c21)OCCCO3 [Compound 6, (E)-N-((1R,4R)-4-(1H-tetrazol-5-yl)cyclohexyl)-1,15-bis(1-ethyl-3-methyl-1H-pyrazole-5-carboxamido)-8,9,16,19-tetrahydro-7H-6,10-dioxa-2,14,15a,19a-tetraazacyclopentadeca[3,2,1-cd:8,9,10-c′d′]diindene-4,12-dicarboxamide sodium salt] | 3.5 mM | reduces tumor volume | 7 out of 9 | 0.01, BLQ, | 440 ± 140 nM | 130 ± 60 nM | 50 ± 10 nM | 290 ± 120 nM | 250 ± 40 nM | 200 ± 50 nM | 260 ± 30 nM | 
3 | CCn1nc(C)cc1C(=O)Nc1nc2cc(C(N)=O)cc3c2n1C/C=C/Cn1c(NC(=O)c2cc(C)nn2CC)nc2cc(C(=O)NCCCn4cc(C(=O)O)cn4)cc(c21)OCCCO3 [Compound 8, (E)-1-(3-(12-carbamoyl-1,15-bis(1-ethyl-3-methyl-1H-pyrazole-5-carboxamido)-8,9,16,19-tetrahydro-7H-6,10-dioxa-2,14,15a,19a-tetraazacyclopentadeca[3,2,1-cd:8,9,10-c′d′]diindene-4-carboxamido)propyl)-1H-pyrazole-4-carboxylic acid sodium salt] | 5.23 mM | reduces tumor volume | 5 out of 9 | BLQ | 40 ± 10 nM | 20 ± 10 nM | 20 ± 10 nM | 90 ± 10 nM | 60 ± 10 nM | 60 nM |  | Tumor Conc. [1, 3]: BLQ
4 | CCn1nc(C)cc1C(=O)Nc1nc2cc(C(N)=O)cc3c2n1C/C=C/Cn1c(NC(=O)c2cc(C)nn2CC)nc2cc(C(=O)N[C@H]4CC[C@H](c5nnn[nH]5)CC4)cc(c21)OC[C@@H](N1C2CCC1COC2)CO3 [Compound 12, (8S,E)-N4-((1R,4S)-4-(1H-tetrazol-5-yl)cyclohexyl)-8-(3-oxa-8-azabicyclo[3.2.1]octan-8-yl)-1,15-bis(1-ethyl-3-methyl-1H-pyrazole-5-carboxamido)-8,9,16,19-tetrahydro-7H-6,10-dioxa-2,14,15a,19a-tetraazacyclopentadeca[3,2,1-cd:8,9,10-c′d′]diindene-4,12-dicarboxamide sodium salt] | 14.2 mM | reduces tumor volume | 8 out of 10 |  | 440 ± 50 nM | 180 ± 50 nM | 90 ± 20 nM | 360 ± 130 nM | 190 ± 80 nM | 300 ± 120 nM | 130 ± 40 nM | concentration at 24 h ([1]; plasma, 0.375 mg/kg single i.v., 24 h (Table 4), read-out: Plasma Conc.): 20 nM
